Drawing on patent US4309559A, “Sulphonamides useful as pesticides” (FBC Limited, priority 1977, dated 1982), this text covers pest or weed control and plant injury for ten molecules.

Common to all, as to type: in vivo
The test system of one test is Peas (Pisum sativum). As to the kind of experiment: Soil incorporation (attaclay/sand dust), growth regulatory or herbicidal effects, peas. As to conditions: Lathyrus oleraceus, 504 h, soil incorporation 130 ppm, 21 days, 0=no effect, 100=complete kill/suppression, read-out: growth regulatory or herbicidal effect score. From the text: (§1) The compounds listed below were each formulated as an attaclay/sand dust and incorporated into John Innes I potting compost at a rate equivalent to 26 parts per million weight/volume of active ingredient to soil and placed in anodised aluminium pans, 19 cm long×9.5 cm wide×5.0 cm deep. This rate is approximately equivalent to a soil surface application of 11.2 kg active ingredient/hectare cultivated to a depth of 5 cm. Seeds of the species listed below were sown in the treated soil, watered and placed in a controlled environment room (22° C.; 65-85% relative humidity; 14 hours per day artificial illumination at 13,000 lux) for 21 days. The plants were then visually assessed for any growth regulatory or herbicidal effects. All differences from an untreated control were scored on a scale from 0-100, where 0 signifies no effect and 100 signifies complete kill.
(§2) The compounds listed below were tested according to the procedure of Examples 56-60 but at 130 parts per million weight/volume of active ingredient to soil. This rate is approximately equivalent to a soil surface application of 56 kg active ingredient per hectare cultivated to a depth of 5 cm.
(§3) The product of Example 95 was tested according to the procedure of Examples 56-60 but at 130 and 26 parts per million weight/volume. The results were as follows:
(§4) N-(2-oxopropyl)-2'-chloro-6'-methyl-methanesulphonanilide, formulated as an attaclay/sand dust, was incorporated in John Innes I potting compost at a rate equivalent to 130 parts per million weight/volume of active ingredient to soil and placed in anodised aluminium pans, 19 cm long×9.5 cm wide×5.0 cm deep. These rates are approximately equivalent to a soil surface application of 56 kg active ingredient per hectare cultivated to a depth of 5 cm. Seeds of Peas, Mustard, Linseed, Maize, Oats and Ryegrass were sown in the treated soil, watered and placed in a controlled environment room (22° C.; 65-85% relative humidity; 14 hours artificial illumination at 13000 lux) for 21 days.
(§5) The plants were then visually assessed for any growth regulatory or herbicidal effects. All differences from an untreated control were scored on a scale from 0-100, where 0 signifies no effect and 100 signifies complete suppression.

Test [1] deals with Linseed (Linum usitatissimum). As to the kind of experiment: Soil incorporation (attaclay/sand dust), growth regulatory or herbicidal effects, linseed. As to conditions: 504 h, soil incorporation 130 ppm, 21 days, 0=no effect, 100=complete kill/suppression, read-out: growth regulatory or herbicidal effect score.
Text: as §1, §2, §3, §4, §5

In test [2] the test system is Ryegrass (Lolium perenne). As to the kind of experiment: Soil incorporation (attaclay/sand dust), growth regulatory or herbicidal effects, ryegrass. As to conditions: 504 h, soil incorporation 130 ppm, 21 days, 0=no effect, 100=complete kill/suppression, read-out: growth regulatory or herbicidal effect score.
Text: as §1, §2, §3, §4, §5

The next test has as its system Maize (Zea mays). Kind of test: Soil incorporation (attaclay/sand dust), growth regulatory or herbicidal effects, maize. The settings on record: 504 h, soil incorporation 130 ppm, 21 days, 0=no effect, 100=complete kill/suppression, read-out: growth regulatory or herbicidal effect score.
Text: as §1, §2, §3, §4, §5

For a further test, the system named is Oats (Avena sativa). As to the kind of experiment: Soil incorporation (attaclay/sand dust), growth regulatory or herbicidal effects, oats. The settings on record: 504 h, soil incorporation 130 ppm, 21 days, 0=no effect, 100=complete kill/suppression, read-out: growth regulatory or herbicidal effect score.
Text: as §1, §2, §3, §4, §5

The test system of another test is Mustard (Sinapis alba). As to the kind of experiment: Soil incorporation (attaclay/sand dust), growth regulatory or herbicidal effects, mustard. As to conditions: 504 h, soil incorporation 130 ppm, 21 days, 0=no effect, 100=complete kill/suppression, read-out: growth regulatory or herbicidal effect score.
Text: as §1, §2, §3, §4, §5

`CS(=O)(=O)N(CC#N)c1ccc(Cl)cc1` [Example 45]: the pest or weed control at 130 µg/mL in the test with Peas (Pisum sativum) is 20%; in test [1] it was 90%; in test [2], 80%; in the test on Mustard (Sinapis alba), 100%. The plant injury at 130 µg/mL was found to be 30% in the test on Maize (Zea mays) and 70% in the test on Oats (Avena sativa).

Turning to `Cc1cccc(C)c1N([C@@H](C)C(=O)O)S(C)(=O)=O` [Example 7, N-(2,6-dimethylphenyl)-N-methanesulphonyl alanine], the pest or weed control at 130 µg/mL came to 20% in the test with Peas (Pisum sativum), 50% in test [1], 0% in test [2] and 70% in the test on Mustard (Sinapis alba). The plant injury at 130 µg/mL with Maize (Zea mays) and in the test with Oats (Avena sativa) was 30% in each case.

Turning to `CCOC(=O)CN(c1ccc(Cl)c(Cl)c1)S(C)(=O)=O` [Example 18], the pest or weed control at 130 µg/mL was determined as 40% in the test on Peas (Pisum sativum), 80% in test [1], 30% in test [2] and 40% in the test on Mustard (Sinapis alba). Also, the plant injury at 130 µg/mL in the test with Maize (Zea mays) stood at 30%; with Oats (Avena sativa), 0%.

With `CC(C(=O)O)N(c1ccc(Cl)c(Cl)c1)S(C)(=O)=O` (stereo not drawn) [Example 4], the pest or weed control at 130 µg/mL came out at 70% in the test on Peas (Pisum sativum), 90% in test [1], 0% in test [2] and 70% in the test on Mustard (Sinapis alba). Besides, the plant injury at 130 µg/mL with Maize (Zea mays) is 70%; in the test with Oats (Avena sativa) it was 40%.

Consider `CCOC(=O)CN(c1cccc(C(F)(F)F)c1)S(C)(=O)=O` [Example 17], for which the pest or weed control at 130 µg/mL in the test on Peas (Pisum sativum) was found to be 40%; in test [1], 90%; in test [2] it was 0%; with Mustard (Sinapis alba) it was 40%. Besides, the plant injury at 130 µg/mL in the test with Maize (Zea mays) and in the test on Oats (Avena sativa) was 0% in each case.

On to `CCOC(=O)CN(c1ccc(Cl)cc1)S(C)(=O)=O` [Example 12], for which the pest or weed control at 130 µg/mL amounted to 40% in the test with Peas (Pisum sativum), 80% in test [1], 5% in test [2] and 70% with Mustard (Sinapis alba). The plant injury at 130 µg/mL with Maize (Zea mays) amounted to 0%; in the test with Oats (Avena sativa) it was 5%.

With `CCOC(=O)CN(c1c(C)cccc1C)S(C)(=O)=O` [Example 14], the pest or weed control at 130 µg/mL was found to be 30% in the test with Peas (Pisum sativum), 90% in test [1], 30% in test [2] and 100% with Mustard (Sinapis alba). Also, the plant injury at 130 µg/mL came to 40% with Maize (Zea mays) and 20% in the test on Oats (Avena sativa).

As for `CCN(CC)C(=O)CN(c1c(C)cccc1C)S(C)(=O)=O` [Example 36], the pest or weed control at 130 µg/mL in the test with Peas (Pisum sativum) stood at 20%; in test [1] it was 40%; in test [2], 20%; in the test with Mustard (Sinapis alba), 100%. Moreover, the plant injury at 130 µg/mL in the test on Maize (Zea mays) and in the test on Oats (Avena sativa) was 20% each time.

For the molecule `CC(=O)CN(c1c(C)cccc1Cl)S(C)(=O)=O` [Example 210, N-2-oxopropyl-2'-chloro-6'-methyl-methanesulphonanilide], the pest or weed control at 130 µg/mL with Peas (Pisum sativum) came out at 30%; in test [1], 80%; in test [2] it was 70%; in the test on Mustard (Sinapis alba), 100%. For the same molecule, the plant injury at 130 µg/mL stood at 5% in the test on Maize (Zea mays) and 60% in the test with Oats (Avena sativa).

Turning to `CCN(CC)C(=O)CN(c1ccc(Cl)cc1)S(C)(=O)=O` [Example 35], the pest or weed control at 130 µg/mL came out at 20% in the test on Peas (Pisum sativum), 40% in test [1], 20% in test [2] and 100% in the test with Mustard (Sinapis alba). The plant injury at 130 µg/mL in the test on Maize (Zea mays) and with Oats (Avena sativa) was 20% in each case.
